Measured values as given in US9533985B2, “Sulfonamide derivative and medicinal use thereof” (EA Pharma Co., Ltd., priority 2012, dated 2017).

Key:
Type in all cases: cell-based
[1] = biological target: α4β1 integrin (Homo sapiens (Human), UniProt P05556+P13612); assay: VCAM-1/α4β1 integrin binding inhibitory activity evaluation test (Jurkat cell adhesion to VCAM-1/Fc); details: Jurkat cells binding to recombinant human VCAM-1/Fc
In short: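 Jurkat cells (5×10^5/well) added with compounds to plates coated with recombinant human VCAM-1/Fc (1 μg/mL coating), in DMEM binding buffer with 40 mM HEPES, 0.2% BSA and 4 mM MnCl2, 15-60 min at 30° C. Bound cells lysed and quantified by LDH absorbance at 490 nm; IC50 relative to compound-free wells, in duplicate.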

[2] = biological target: T1, α4β7 integrin (Homo sapiens (Human), UniProt P13612+P26010); assay: MAdCAM-1/α4β7 integrin binding inhibitory activity evaluation test (RPMI-8866 cell adhesion to MAdCAM-1/Fc); details: for Selectivity: IC50 in VCAM-1/α4β1 test divided by IC50 in MAdCAM-1/α4β7 test; for IC50: RPMI-8866 cells binding to recombinant mouse MAdCAM-1/Fc, no serum
In short: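 Human RPMI-8866 cells (α4β7+) adhered for 15–60 min at 30 °C to plates coated with recombinant mouse MAdCAM-1/Fc, in DMEM binding buffer with 4 mM MnCl2 and test compound. Bound cells were quantified via LDH activity (A490) after lysis. IC50 is the 50% inhibition of binding relative to compound-free wells.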

[3] = biological target: T1, α4β7 integrin; assay: MAdCAM-1/α4β7 integrin binding inhibitory activity evaluation test in the presence of serum (1); details: RPMI-8866 cells binding to mouse MAdCAM-1/Fc, human serum at final concentration of 50%; read-out: α4β7 with serum added, IC50
In short: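 Plates were coated with recombinant mouse MAdCAM-1/Fc (1 μg/mL, pH 9.6). Human RPMI-8866 B cells (α4β7-expressing) bound for 15–60 min at 30 °C in DMEM/HEPES/BSA with 4 mM MnCl2 and 50% human serum, with test substance present. Bound cells were quantified by LDH absorbance at 490 nm, run in duplicate, and IC50 was calculated relative to no-compound wells.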

T1 sequence (P13612 34-1032): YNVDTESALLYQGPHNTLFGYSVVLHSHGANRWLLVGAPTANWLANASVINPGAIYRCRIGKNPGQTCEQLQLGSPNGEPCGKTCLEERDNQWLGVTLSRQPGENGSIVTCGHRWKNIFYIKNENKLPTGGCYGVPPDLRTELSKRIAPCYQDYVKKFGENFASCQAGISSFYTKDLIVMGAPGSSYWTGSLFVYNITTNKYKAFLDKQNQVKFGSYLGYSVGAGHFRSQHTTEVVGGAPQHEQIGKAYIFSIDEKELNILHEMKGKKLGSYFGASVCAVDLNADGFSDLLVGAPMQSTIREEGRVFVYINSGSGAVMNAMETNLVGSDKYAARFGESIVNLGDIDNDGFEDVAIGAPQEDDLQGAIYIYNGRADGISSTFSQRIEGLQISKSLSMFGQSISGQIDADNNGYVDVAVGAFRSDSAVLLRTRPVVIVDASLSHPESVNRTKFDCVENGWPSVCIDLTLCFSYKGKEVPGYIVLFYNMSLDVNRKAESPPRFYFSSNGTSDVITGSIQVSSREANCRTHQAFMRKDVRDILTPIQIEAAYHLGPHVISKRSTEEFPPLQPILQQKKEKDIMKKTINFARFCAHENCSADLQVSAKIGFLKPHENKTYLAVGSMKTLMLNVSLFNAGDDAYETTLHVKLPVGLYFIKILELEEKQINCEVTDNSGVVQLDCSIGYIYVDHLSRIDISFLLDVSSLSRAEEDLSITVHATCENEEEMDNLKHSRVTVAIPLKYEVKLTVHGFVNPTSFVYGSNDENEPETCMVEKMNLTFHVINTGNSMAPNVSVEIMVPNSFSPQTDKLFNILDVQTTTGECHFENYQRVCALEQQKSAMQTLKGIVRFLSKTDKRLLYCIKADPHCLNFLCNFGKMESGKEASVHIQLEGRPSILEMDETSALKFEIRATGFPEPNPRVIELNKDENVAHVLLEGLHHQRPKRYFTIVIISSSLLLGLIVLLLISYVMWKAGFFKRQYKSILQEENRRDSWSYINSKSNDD
T1 sequence (P26010 20-798): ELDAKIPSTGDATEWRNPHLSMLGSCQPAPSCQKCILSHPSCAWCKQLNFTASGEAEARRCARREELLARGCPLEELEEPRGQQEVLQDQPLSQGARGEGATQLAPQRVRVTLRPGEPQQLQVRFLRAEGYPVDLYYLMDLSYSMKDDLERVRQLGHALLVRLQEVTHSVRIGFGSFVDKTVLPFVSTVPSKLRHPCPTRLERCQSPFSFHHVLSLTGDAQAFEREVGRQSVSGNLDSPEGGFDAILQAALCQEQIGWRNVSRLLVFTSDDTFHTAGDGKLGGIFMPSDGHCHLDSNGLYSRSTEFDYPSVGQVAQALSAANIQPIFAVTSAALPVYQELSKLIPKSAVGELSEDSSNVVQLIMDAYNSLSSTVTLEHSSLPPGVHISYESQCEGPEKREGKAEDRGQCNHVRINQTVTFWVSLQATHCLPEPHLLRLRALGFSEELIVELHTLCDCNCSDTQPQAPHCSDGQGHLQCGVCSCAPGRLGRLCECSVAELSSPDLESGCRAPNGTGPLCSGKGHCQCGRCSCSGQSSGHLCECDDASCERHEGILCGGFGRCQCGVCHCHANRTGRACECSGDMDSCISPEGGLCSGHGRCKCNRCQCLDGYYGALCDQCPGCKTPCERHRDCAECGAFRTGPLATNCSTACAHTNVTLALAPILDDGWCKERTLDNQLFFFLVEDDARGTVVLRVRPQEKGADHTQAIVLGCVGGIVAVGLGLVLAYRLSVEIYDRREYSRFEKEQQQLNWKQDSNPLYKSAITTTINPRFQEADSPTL
Sequence of α4β1 integrin (P13612 34-1032): as the sequence (P13612 34-1032) above
Sequence of α4β1 integrin (P05556 21-798): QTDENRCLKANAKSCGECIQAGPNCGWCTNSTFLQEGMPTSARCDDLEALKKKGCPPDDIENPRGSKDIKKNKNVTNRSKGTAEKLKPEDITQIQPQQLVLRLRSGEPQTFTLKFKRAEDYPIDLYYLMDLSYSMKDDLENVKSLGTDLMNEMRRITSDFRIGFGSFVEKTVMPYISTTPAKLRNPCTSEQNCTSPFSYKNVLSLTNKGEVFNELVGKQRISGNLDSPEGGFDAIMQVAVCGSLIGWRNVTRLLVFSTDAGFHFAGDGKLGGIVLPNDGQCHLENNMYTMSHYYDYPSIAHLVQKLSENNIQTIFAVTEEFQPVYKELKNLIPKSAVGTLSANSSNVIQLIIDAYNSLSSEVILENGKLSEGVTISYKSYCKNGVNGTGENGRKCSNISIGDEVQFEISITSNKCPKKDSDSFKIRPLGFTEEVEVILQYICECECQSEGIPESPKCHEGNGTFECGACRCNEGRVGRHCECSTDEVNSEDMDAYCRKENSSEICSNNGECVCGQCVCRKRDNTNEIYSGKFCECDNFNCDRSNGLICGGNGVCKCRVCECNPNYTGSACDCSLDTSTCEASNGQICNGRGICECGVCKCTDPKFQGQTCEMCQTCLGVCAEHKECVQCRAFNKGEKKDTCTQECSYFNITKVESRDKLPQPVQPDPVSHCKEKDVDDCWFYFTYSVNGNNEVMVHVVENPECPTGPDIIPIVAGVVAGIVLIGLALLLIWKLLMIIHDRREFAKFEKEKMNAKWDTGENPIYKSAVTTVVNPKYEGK

IC50 [1] [nM]	Selectivity [2]	IC50 [2] [nM]	IC50 [3] [nM]	Compound
150	560	0.27	9.1	Cn1cnc2c1c(=O)n(-c1ccc(C[C@H](NC(=O)c3c(F)cc(NS(=O)(=O)c4ccc(-c5ncccn5)cc4)cc3F)C(=O)O)cc1)c(=O)n2C [Example 77, N-(2,6-Difluoro-4-{[(4-pyrimidin-2-yl-phenyl)sulfonyl]amino}benzoyl)-4-(3,7-dimethyl-2,6-dioxo-2,3,6,7-tetrahydro-1H-purin-1-yl)-L-phenylalanine]
370	470	0.79	19	COc1ccc2c(c1)c(=O)n(-c1ccc(C[C@H](NC(=O)c3c(F)cc(NS(=O)(=O)c4ccc(C(=O)NC5CC5)cc4)cc3F)C(=O)O)cc1)c(=O)n2C [Example 78, N-{4-[({4-[(Cyclopropylamino)carbonyl]phenyl}sulfonyl)amino]-2,6-difluorobenzoyl}-4-(6-methoxy-1-methyl-2,4-dioxo-1,4-dihydroquinazolin-3(2H)-yl)-L-phenylalanine]
